From patent US5733526A, “Hydrocarbon oil/fluorochemical preparations and methods of use” (priority 1995, dated 1998)

Columns and labels:
[1] = cited from earlier work; for Log Po/w: octanol/water
[2] = Micelle formation in perfluorooctanes by FTIR (C-H stretching frequency); type: physicochemical; details: in F-octanes
Protocol: A series of solutions of CF3 (CF2) 7 (CH2) 15 CH3 (F8H16; 0.02 mol/L to 0.2 mol/L) were prepared in F-octanes (purity≥98%) and the frequency of the carbon to hydrogen (--C--H) stretching mode (T=50° C.) measured using FTIR (Fourier Transform Infrared Spectroscopy). The formation of F8H16 micelles in a fluorocarbon continuous phase results in the transfer of the F8H16 hydrocarbon groups from a fluorocarbon rich environment in the molecular solution to a hydrocarbon rich environment at the interior of the micelles. The occurrence of this phase change can be measured as a change in the FTIR stretching frequency for the carbon-hydrogen bonds in the --CH2 groups of the FmHn molecules. […] The inflection point in the curve confirmed the existence of F8H16 micelles and was used to define the critical micelle concentration at about 0.05 mol/L.
A series of solutions of CF3 (CF2) 5 (CH2) 13 CH3 (F6H14; 0.02 mol/L to 0.2 mol/L) were prepared in F-octanes (purity≥98%) and the frequency of the carbon to hydrogen (--C--H) stretching mode (T=25° C.) measured using FTIR. The formation of F6H14 micelles was measured as a change in the FTIR stretching frequency for the carbon-hydrogen bonds in the --CH2 groups of the FmHn molecules. […] The inflection point in the curve confirmed the existence of F6H14 micelles and was used to define the critical micelle concentration at about 0.1 mol/L.

[3] = Titration of hydrocarbon oil into F-octanes until phase separation; solubilization by diblock dispersing agent; details: for amount of hydrocarbon oil at which phase separation occurred: titrated into F-Octanes (8.82 g), before dispersing agent

COc1ccc(C(=O)CC(=O)c2ccc(C(C)(C)C)cc2)cc1 [^3 H-parsol 1789]
Octanol/water partition coefficient Po/w [1]: 5.0 × 10^6
Log Po/w [1]: 6.7

CCCCCCCCCCCCCCCCC(F)(F)C(F)(F)C(F)(F)C(F)(F)C(F)(F)C(F)(F)C(F)(F)C(F)(F)F [Example F8H16, 1-(F-octyl)hexadecane]
critical micelle concentration ([2]; T=50° C.): about 0.05 mol/L

CC(C)(C)NCC(O)COc1cccc2c1CCCC2=O (stereo not drawn) [^14 C-bunolol]
Octanol/water partition coefficient Po/w [1]: 2.51 × 10^2

FC(F)(F)C(Cl)Br (stereo not drawn) [halothane]
Octanol/water partition coefficient Po/w [1]: 2.00 × 10^2
Log Po/w [1]: 2.30

COC(=O)c1ccccc1O [methyl salicylate]
amount of hydrocarbon oil at which phase separation occurred [3]: 10 to 20 µL
solubilization in F-Octanes ([3]; with F6H14 (17.3%, w/v)): 2.2 %, v/v

CCCCCC [n-hexane]
amount of hydrocarbon oil at which phase separation occurred [3]: 1700 µL
solubilization in F-Octanes ([3]; with F8H16 (7.82%, w/v)): 36.5 %, v/v

CCCCNc1ccc(C(=O)OCCN(C)C)cc1 [tetracaine]
Octanol/water partition coefficient Po/w [1]: 79.4

Clc1cccc(Cl)c1N=C1NCCN1 [^3 H-clonidine]
Octanol/water partition coefficient Po/w [1]: 25.1

CCCCCCCCCCCCCCC(F)(F)C(F)(F)C(F)(F)C(F)(F)C(F)(F)C(F)(F)F [Example F6H14]
critical micelle concentration ([2]; T=25° C.): about 0.1 mol/L

CCCCC(CC)COC(=O)c1ccc(N(C)C)cc1 (stereo not drawn) [^14 C-padimate-o]
Octanol/water partition coefficient Po/w [1]: 3.98 × 10^6

CC(=O)[C@@]1(O)CC[C@H]2[C@@H]3C[C@H](C)C4=CC(=O)C=C[C@]4(C)[C@@]3(F)[C@@H](O)C[C@@]21C [^3 H-fluorometholone]
Octanol/water partition coefficient Po/w [1]: 1.26 × 10^2
